Values joined by “and” are separate entries in the source; they are usually repeats but may differ in a detail not shown here. Equal entries are not always repeated. Where two headings read alike, the source gives them in different places.
Tests used:
in vitro [1] = details: human, hepg2-a16-cd81egfp cells
in vitro [2] = details: human, HepG2-A16-CD81EGFP cells, uninfected
[3] = system: T1, Plasmodium falciparum Dd2-attB (parental line), asexual blood stages; test: microbe, parasite or virus in culture; design: replicate k of 3 (each line is one of three independent assays; the three lines of one compound and parasite line follow each other); details: n = 1; for Individual replicates / Log AC50 (M): 72 h; for AC50: Plasmodium falciparum, DD2, 72 h, read-out: Individual replicates / Log AC50 (converted)
T1 construct: Dd2-attB, the isogenic parental line
Summary of the method: (§1)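 Statistics: two-sided Student's t-test between parental and transgenic values, from three independent assays. The transgene encodes a fumarate-dependent DHODH from yeast, independent of the parasite mETC.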

HepG2-A16-CD81EGFP cells = details: average of 2 wells, repeat 2
[4] = system: P. berghei-ANKA-GFP-LucCON liver stage parasites in HepG2-A16-CD81EGFP cells; test: P. berghei liver stage Pb-Luc assay, Method 1 (UCSD, 1536-well); format: cell-based, Plasmodium berghei; details: for activity at 1 µM / activity at 3 µM: 48 h, average of 2 wells, 1536-well plate; for activity at 1 µM: nominal 1 uM (10 mM stock), […] for 15 mM, 1.2 uM for 12 mM, 2 uM for 20 mM stock; for activity at 3 µM: nominal 3 uM (10 mM stock), 4.5 uM for 15 mM, 3.6 uM for 12 mM, 6 uM for 20 mM stock; for Pb-Luc signal, 1 uM, repeat 1: reference of the scale not given here; for Pb-Luc signal, 1 uM, repeat 2: reference of the scale not given here; for Pb-Luc signal, 1 uM, repeat 3: reference of the scale not given here; for Pb-Luc signal, 3 uM, repeat 1: reference of the scale not given here; for Pb-Luc signal, 3 uM, repeat 2: reference of the scale not given here; for Pb-Luc signal, 3 uM, repeat 3: reference of the scale not given here
[5] = system: T2, Plasmodium falciparum Dd2-attB-ScDHODH (transgenic line expressing yeast DHODH), asexual blood stages; test: organism not typed; design: replicate k of 3 (each line is one of three independent assays; the three lines of one compound and parasite line follow each other); details: 72 h, n = 1; for AC50: read-out: Individual replicates / Log AC50 (converted)
T2 construct: Dd2-attB-ScDHODH, the transgenic line that expresses yeast DHODH
Summary of the method: as §1

[6] = system: Plasmodium falciparum Dd2 asexual blood stage parasites; test: microbe, parasite or virus in culture; design: species or system Plasmodium falciparum Dd2 in human erythrocytes; single determination (one 11-point concentration-response curve); details: Plasmodium falciparum, DD2, Erythrocyte, 72 h; read-out: AC50

`COc1ccccc1[C@@]1(C)ON(c2ccccc2C(F)(F)F)C1=O` [MLS002206613] showed a viability at 3 µM (in vitro [1]; % viability) of 88.4%.
Work on `CC[C@@]1(c2ccccc2OC)ON(c2ccccc2C(F)(F)F)C1=O` [MLS002206609] yielded a viability at 3 µM (in vitro [1]; % viability) of 92.6%.
In the case of `O=C(NCc1ccccc1)c1onc(CSc2nc3ccccc3[nH]2)c1C(=O)NCc1ccccc1` [MLS000561090], the viability at 3 µM (in vitro [1]; % viability) is reported as 105%.
`COc1cc(NC(=O)c2cc([N+](=O)[O-])ccc2NC(=O)CNC2CCCCC2)cc(OC)c1` [MLS000950380] gave a viability at 3 µM (in vitro [1]; % viability) of 109%.
For `Cc1ccc(Nc2cc(C)c3ccc(O)cc3n2)cc1C` [MLS000674791], the viability at 3 µM (in vitro [1]; % viability) was 92.2%.
Work on `COc1ccccc1CNC(=O)CCn1c(=O)[nH]c2ccsc2c1=O` [MLS000044764] yielded a viability at 3 µM (in vitro [1]; % viability) of 109%.
`COc1ccc2cc3cc(C(=O)NCC4CCCO4)oc3nc2c1` (stereo not shown) [MLS000091914] gave a viability at 3 µM (in vitro [1]; % viability) of 106%.
For `Cc1ccc(CNCc2cc3c(C(C)(C)C)nn(-c4ccccc4)c3[nH]c2=O)cc1` [MLS000067257], the viability at 3 µM (in vitro [1]; % viability) was 106%.
In the case of `COc1ccc2[nH]c(C)c(CCN(Cc3cccs3)C(S)=Nc3ccccc3)c2c1` [MLS000529828], the viability at 3 µM (in vitro [1]; % viability) is reported as 86.8%.
`O=c1c2ccccc2nc(N/N=C/c2c(O)ccc3ccccc23)n1O` [MLS000551780] showed a viability at 3 µM (in vitro [1]; % viability) of 34.1%.
With `CCC(=O)Nc1cc(=O)[nH]c2nc(-c3ccc(Cl)cc3)nn12` [MLS000779210] the viability at 3 µM (in vitro [1]; % viability) was 92%.
Molecule `CCOc1cccc(CNCCc2c(C)[nH]c3ccc(OC(F)(F)F)cc23)c1O` [MLS001198351] has a viability at 3 µM (in vitro [1]; % viability) of 70.5%.
For `CCOC(=O)C1CCN(Cc2cc(Cl)c3ccccc3c2O)CC1` [MLS001171913], the viability at 3 µM (in vitro [1]; % viability) was 87.1%.
In the case of `Cc1ccc(O)c(-c2cc(C(=O)Nc3ccc(S(=O)(=O)N4CC(C)OC(C)C4)cc3)n[nH]2)c1` (stereo not shown) [MLS000042695], the viability at 3 µM (in vitro [1]; % viability) is reported as 87.1%.
For `COC(=O)C1=C(C)NC(C)=C(C(=O)OCCCN2CCC(c3ccccc3)(c3ccccc3)CC2)C1c1cccc([N+](=O)[O-])c1` (stereo not shown) [NCGC00163135], the viability at 3 µM (in vitro [1]) was 81%.
`COc1ccc([C@@]2(C(C)C)ON(c3ccccc3C(F)(F)F)C2=O)cc1` [MLS002206606] gave a viability at 3 µM (in vitro [1]; % viability) of 83.8%.
Work on `Oc1cc(/C=C/c2c(F)cccc2Cl)nc2ccccc12` [MLS000862522] yielded a viability at 3 µM (in vitro [1]; % viability) of 102%.
In the case of `CCCN1C(CC(C)C)=N[S+](=O)([O-])c2cc(NC(=O)c3cccs3)ccc21` [NCGC00473217-01], the viability at 48 h, 1 µM (in vitro [2]) is reported as 105%, the viability at 48 h, 3 µM (in vitro [2]) is reported as 106% and the “Individual replicates / Log AC50 (M)” value [3] is reported as -7.2986 Log AC50 (M) and -6.9486 Log AC50 (M) and -6.9986 Log AC50 (M). For the same molecule, the “HepG2 viability signal, 1 uM, repeat 2” value (HepG2-A16-CD81EGFP cells; nominal 1 uM (10 mM stock), […] for 15 mM, 1.2 uM for 12 mM, 2 uM for 20 mM stock) was 104.11%, the “HepG2 viability signal, 3 uM, repeat 2” value (HepG2-A16-CD81EGFP cells; nominal 3 uM (10 mM stock), 4.5 uM for 15 mM, 3.6 uM for 12 mM, 6 uM for 20 mM stock) was 105.41% and the “Max Resp (signal direction of the dose response)” value ([4]; Method 1, Decrease = decreasing P. berghei viability with dose, Increase = increasing signal, Inactive = no dose response) was “Decrease”. The AC50 ([4]; Method 1, Hill fit, 50% of maximum activity response, read-out: AC50) was 0.00316 µM, the “Log AC50 (M)” value ([4]; Method 1, log10 of molar AC50 from Hill fit) was -8.500 M and the activity at 1 µM ([4]; Plasmodium berghei, repeat 1, read-out: Pb-Luc signal, 1 uM, repeat 1) was 8.62%. It also gave an activity at 1 µM ([4]; Plasmodium berghei, repeat 2, read-out: Pb-Luc signal, 1 uM, repeat 2) of 7.89%, an activity at 1 µM ([4]; Plasmodium berghei, repeat 3, read-out: Pb-Luc signal, 1 uM, repeat 3) of 4.31% and an activity at 3 µM ([4]; Plasmodium berghei, repeat 1, read-out: Pb-Luc signal, 3 uM, repeat 1) of 2.42%. It also gave an activity at 3 µM ([4]; Plasmodium berghei, repeat 2, read-out: Pb-Luc signal, 3 uM, repeat 2) of 3.74%, an activity at 3 µM ([4]; Plasmodium berghei, repeat 3, read-out: Pb-Luc signal, 3 uM, repeat 3) of 3.33% and an AC50 ([4]; Plasmodium berghei, Method 1, Hill fit, 50% of maximum activity response, read-out: AC50) of 0.00282 µM. The AC50 ([4]; Plasmodium berghei, Method 1, log10 of molar AC50 from Hill fit, read-out: Log AC50 (converted)) was 0.00282 µM, the “Individual replicates / Log AC50 (M)” value [5] was -6.2986 Log AC50 (M) and the AC50 [5] was 0.71 µM. The AC50 [6] was 0.335 µM.
In the case of `Oc1ccc(CNc2ccc(C(F)(F)F)cc2Cl)c2cccnc12` [NCGC00183375-01], the “Individual replicates / Log AC50 (M)” value [3] is reported as -5.2986 Log AC50 (M) and -5.3486 Log AC50 (M), the AC50 [3] is reported as 5.03 µM and the “Individual replicates / Log AC50 (M)” value [5] is reported as -5.2486 Log AC50 (M) and -5.0986 Log AC50 (M). For the same molecule, the AC50 [5] was 5.03 µM and the AC50 [6] was 10.6 µM.
For `Cc1ccc(NC2=C(c3ccc(C(F)(F)F)cc3)C(=O)c3ccccc32)cc1F` [NCGC00107266-02], the “Individual replicates / Log AC50 (M)” value [3] was -6.3986 Log AC50 (M) and -6.3486 Log AC50 (M) (2×) and the “Individual replicates / Log AC50 (M)” value [5] was -5.2986 Log AC50 (M) and -5.1986 Log AC50 (M) and -5.5486 Log AC50 (M).
With `CCOC(=O)CCNc1cc(N2CCc3ccccc3CC2)nc(-c2cccnc2)n1` [NCGC00351550-01] the “Individual replicates / Log AC50 (M)” value [3] was -4.8986 Log AC50 (M), the AC50 [3] was 14.2 µM and the “Individual replicates / Log AC50 (M)” value [5] was -4.7986 Log AC50 (M).
For `O=C(O)c1ccnc2cc(-c3nc4ccccc4n3CCN3CCCCC3)sc12` [NCGC00485470-01], the “Individual replicates / Log AC50 (M)” value [3] was -5.2986 Log AC50 (M) and -5.1986 Log AC50 (M), the AC50 [3] was 6.33 µM and the “Individual replicates / Log AC50 (M)” value [5] was -5.2486 Log AC50 (M). It also gave an AC50 [5] of 7.1 µM.
In the case of `COC(=O)c1ccc(O)c2ncc(N(C)C)cc12` [NCGC00189506-01], the “Individual replicates / Log AC50 (M)” value [3] is reported as -5.0986 Log AC50 (M) and -5.1486 Log AC50 (M), the AC50 [3] is reported as 7.97 µM and the “Individual replicates / Log AC50 (M)” value [5] is reported as -5.0486 Log AC50 (M). For the same molecule, the AC50 [5] was 14.2 µM.
With `CN(C)CCCNC(=O)c1ccc(-c2cc(O)c3ncccc3c2)cc1` [NCGC00183808-03] the “Individual replicates / Log AC50 (M)” value [3] was -4.9486 Log AC50 (M) and -4.8986 Log AC50 (M), the AC50 [3] was 14.2 µM and the “Individual replicates / Log AC50 (M)” value [5] was -4.8486 Log AC50 (M). For the same molecule, the AC50 [5] was 12.6 µM.

Source: paper PMC7822874, “Chemoprotective antimalarials identified through quantitative high-throughput screening of Plasmodium blood and liver stage parasites” (Scientific Reports, 2021)
